According to paper PMC8573357, “Exploring Multifunctional Bioactive Components from Podophyllum sinense Using Multi-Target Ultrafiltration” (Frontiers in Pharmacology, 2021):

Biological target: ACE2 (Homo sapiens, UniProt Q9BYF1)
Test: affinity ultrafiltration-HPLC/MS from crude extract against heat-inactivated control; identity by standard
Assay type: binding

Sequence of ACE2 (Q9BYF1 18-805): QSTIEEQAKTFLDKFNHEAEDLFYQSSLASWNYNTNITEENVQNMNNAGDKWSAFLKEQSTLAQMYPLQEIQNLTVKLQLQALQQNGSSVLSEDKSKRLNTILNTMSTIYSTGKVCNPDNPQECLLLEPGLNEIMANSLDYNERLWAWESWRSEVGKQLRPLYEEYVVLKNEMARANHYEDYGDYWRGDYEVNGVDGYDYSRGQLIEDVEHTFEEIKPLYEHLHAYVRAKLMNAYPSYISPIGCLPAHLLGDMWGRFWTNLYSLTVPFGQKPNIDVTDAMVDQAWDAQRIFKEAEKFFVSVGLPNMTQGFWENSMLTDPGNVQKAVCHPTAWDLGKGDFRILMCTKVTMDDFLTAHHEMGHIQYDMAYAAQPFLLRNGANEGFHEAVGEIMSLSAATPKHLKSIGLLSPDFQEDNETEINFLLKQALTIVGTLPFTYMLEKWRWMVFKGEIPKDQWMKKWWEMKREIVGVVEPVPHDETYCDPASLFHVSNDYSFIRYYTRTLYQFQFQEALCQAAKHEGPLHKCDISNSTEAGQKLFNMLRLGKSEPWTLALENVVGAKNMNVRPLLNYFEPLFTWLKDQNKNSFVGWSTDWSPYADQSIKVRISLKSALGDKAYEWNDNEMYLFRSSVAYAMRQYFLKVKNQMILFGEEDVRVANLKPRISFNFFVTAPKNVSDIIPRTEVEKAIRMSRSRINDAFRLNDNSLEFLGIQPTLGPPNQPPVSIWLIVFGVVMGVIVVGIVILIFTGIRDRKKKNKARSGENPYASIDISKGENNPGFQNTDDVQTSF

## O=c1c(O)c(-c2ccc(O)cc2)oc2cc(O)cc(O)c12 [Peak 7, Kaempferol]
  EFs ^b (%) / ACE2: 3.10 % (enrichment factor)

## COc1cc2c(O)c3c(c(-c4ccc5c(c4)OCO5)c2cc1OC)C(=O)OC3 [Peak 10, Diphyllin]
  EFs ^b (%) / ACE2: 3.68 % (enrichment factor)
